Tests used:
bedstraw = assay: Test B pre/postemergence bedstraw; assay type: in vivo, Galium aparine; conditions: for Bedstraw plant response rating (0 to 10 scale): 0 is no effect
Procedure, shortened: (§1)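 Herbicidal effect was estimated by eye on a ten-point control scale after plants spent twelve to sixteen days in a greenhouse following soil or foliar treatment. Foliar sprays targeted plants at one to four leaves; all doses were formulated in a non-phytotoxic solvent with surfactant.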

blackgrass = assay: Test B pre/postemergence blackgrass; assay type: in vivo, Alopecurus myosuroides; conditions: for Blackgrass plant response rating (0 to 10 scale): 0 is no effect
Procedure, shortened: as §1

surinam grass = assay: Test B pre/postemergence surinam grass; assay type: in vivo, Brachiaria decumbens
Procedure, shortened: as §1

bamyardgrass = assay: Test B flood test barnyardgrass; assay type: in vivo, Echinochloa crus-galli
Procedure, shortened: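 Each value is a visual injury score relative to controls, with 10 meaning complete control and 0 no effect. Evaluation took place twelve to sixteen days after the 2-leaf-stage plants were treated and kept in the greenhouse.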

[1] = Preemergence, Rate 62 g/ha, scale of 0 to 10 where 0 is no effect and 10 is complete control
[2] = Preemergence, Rate 125 g/ha, 10 is complete control
[3] = Preemergence, Rate 250 g/ha, scale 0 to 10, 0 is no effect, 10 is complete control
[4] = Preemergence, Rate 500 g/ha, scale 0 to 10 (0 no effect, 10 complete control)
[5] = Rate 62 g/ha, Postemergence, scale of 0 to 10 where 0 is no effect and 10 is complete control
[6] = Rate 125 g/ha, Postemergence, scale 0 to 10
[7] = Rate 500 g/ha, Postemergence, scale 0 to 10
[8] = Rate 1000 g/ha, Preemergence, scale 0 to 10 (0 no effect, 10 complete control)
[9] = Postemergence, Rate 1000 g/ha, scale 0 to 10 (0 no effect, 10 complete control)
[10] = Rate 125 g/ha, Postemergence, scale 0 (no effect) to 10 (complete control)
[11] = Rate 250 g/ha, Postemergence, scale 0 to 10, 0 is no effect, 10 is complete control
[12] = Rate 500 g/ha, Postemergence, scale 0 to 10, 0 no effect, 10 complete control
[13] = Rate 62 g/ha, headed Pre-emergence (flood test species), scale 0 to 10 (0 no effect, 10 complete control)
[14] = Rate 125 g/ha, Pre-emergence, flood test species, scale 0 to 10 where 0 is no effect and 10 is complete control
[15] = Rate 250 g/ha, Pre-emergence, flood-test species, scale 0 to 10, 0 is no effect, 10 is complete control
[16] = Rate 500 g/ha, headed Pre-emergence (flood test species), scale 0 to 10 (0 no effect, 10 complete control)
[17] = Postemergence, Rate 62 g/ha, scale 0 to 10, 0 is no effect, 10 is complete control
[18] = Postemergence, Rate 125 g/ha, scale of 0 to 10 where 0 is no effect and 10 is complete control
[19] = Postemergence, Rate 250 g/ha, scale of 0 to 10, 0 is no effect, 10 is complete control
[20] = Postemergence, Rate 500 g/ha, scale of 0 to 10 where 0 is no effect and 10 is complete control
[21] = Preemergence, Rate 62 g/ha, scale 0 to 10 (0 no effect, 10 complete control)
[22] = Preemergence, Rate 125 g/ha, scale of 0 to 10 where 0 is no effect and 10 is complete control
[23] = Preemergence, Rate 250 g/ha, scale 0 to 10 (0 no effect, 10 complete control)
[24] = Preemergence, Rate 500 g/ha, scale of 0 to 10 where 0 is no effect and 10 is complete control
[25] = Postemergence, Rate 250 g/ha, scale 0 to 10, 0 no effect, 10 complete control
[26] = Preemergence, Rate 62 g/ha, scale 0 to 10, 0 is no effect, 10 is complete control
[27] = Preemergence, Rate 125 g/ha, scale 0 to 10 (0 no effect, 10 complete control)
[28] = Preemergence, Rate 250 g/ha, scale of 0 to 10 where 0 is no effect and 10 is complete control
[29] = Preemergence, Rate 500 g/ha, scale 0 (no effect) to 10 (complete control)
[30] = Rate 125 g/ha, Postemergence, scale 0 to 10, 0 no effect, 10 complete control
[31] = Rate 500 g/ha, Postemergence, 0 to 10 scale (0 no effect, 10 complete control)

## CC(C)N(C(=O)n1oc(=O)n(C2CCCC(C(F)(F)F)C2)c1=O)c1ccc(F)cc1 (centres unmarked) [Compound 184]
bedstraw; [1]
  Bedstraw plant response rating: 0
bedstraw; [2]
  Bedstraw plant response rating (0 to 10 scale): 0
bedstraw; [3]
  Bedstraw plant response rating: 2
bedstraw; [4]
  Bedstraw plant response rating: 2
bedstraw; [5]
  Bedstraw plant response rating: 0
bedstraw; [6]
  Bedstraw plant response rating: 7
bedstraw; Rate 250 g/ha, Postemergence
  Plant response rating (0 to 10; 0 is no effect, 10 is complete control), Bedstraw: 3
bedstraw; [7]
  Bedstraw plant response rating: 6
bedstraw; [8]
  Plant response rating, Bedstraw: 2
blackgrass; [9]
  Blackgrass plant response rating: 7
blackgrass; [1]
  Blackgrass plant response rating: 0
blackgrass; [2]
  Blackgrass plant response rating (0 to 10 scale): 3
blackgrass; [3]
  Blackgrass plant response rating: 5
blackgrass; [4]
  Blackgrass plant response rating: 7
blackgrass; [5]
  Blackgrass plant response rating: 0
blackgrass; [6]
  Blackgrass plant response rating: 1
blackgrass; Rate 250 g/ha, Postemergence
  Plant response rating (0 to 10; 0 is no effect, 10 is complete control), Blackgrass: 3
blackgrass; [7]
  Blackgrass plant response rating: 4
blackgrass; [8]
  Plant response rating, Blackgrass: 7
Surinam grass; [9]
  B. signalgrass plant response rating: 3
Surinam grass; [1]
  B. signalgrass plant response rating: 5
Surinam grass; Preemergence, Rate 125 g/ha, 0 is no effect, 10 is complete control
  B. signalgrass plant response rating (0 to 10 scale): 5
Surinam grass; [3]
  B. signalgrass plant response rating: 8
Surinam grass; [4]
  B. signalgrass plant response rating: 8
Surinam grass; [5]
  B. signalgrass plant response rating: 0
Surinam grass; [10]
  B. signalgrass plant response rating: 0
Surinam grass; [11]
  Plant response rating, B. signalgrass: 0
Surinam grass; [12]
  B. signalgrass plant response rating: 0
Surinam grass; [8]
  Plant response rating, B. signalgrass: 5
bamyardgrass; [13]
  Barnyardgrass plant response rating: 0
bamyardgrass; [14]
  Barnyardgrass plant response rating: 0
bamyardgrass; [15]
  Barnyardgrass plant response rating: 0
bamyardgrass; [16]
  Plant response rating, Barnyardgrass: 6
bamyardgrass; Rate 500 g/ha, listed under Postemergence (flood test species), scale 0 to 10
  Barnyardgrass plant response rating: 0
bamyardgrass; Rate 1000 g/ha, Pre-emergence (as headed), scale 0 to 10
  Barnyardgrass plant response rating: 3

## CCN(Cc1ccncc1)C(=O)n1oc(=O)n(C(C)C)c1=O [Compound 189]
bedstraw; [1]
  Bedstraw plant response rating: 0
bedstraw; [2]
  Bedstraw plant response rating (0 to 10 scale): 0
bedstraw; [3]
  Bedstraw plant response rating: 0
bedstraw; [4]
  Bedstraw plant response rating: 0
bedstraw; [5]
  Bedstraw plant response rating: 0
bedstraw; [6]
  Bedstraw plant response rating: 0
bedstraw; Rate 250 g/ha, Postemergence
  Plant response rating (0 to 10; 0 is no effect, 10 is complete control), Bedstraw: 0
bedstraw; [7]
  Bedstraw plant response rating: 0
blackgrass; [1]
  Blackgrass plant response rating: 1
blackgrass; [2]
  Blackgrass plant response rating (0 to 10 scale): 4
blackgrass; [3]
  Blackgrass plant response rating: 4
blackgrass; [4]
  Blackgrass plant response rating: 7
blackgrass; [5]
  Blackgrass plant response rating: 0
blackgrass; [6]
  Blackgrass plant response rating: 0
blackgrass; Rate 250 g/ha, Postemergence
  Plant response rating (0 to 10; 0 is no effect, 10 is complete control), Blackgrass: 0
blackgrass; [7]
  Blackgrass plant response rating: 0
Surinam grass; [1]
  B. signalgrass plant response rating: 3
Surinam grass; [3]
  B. signalgrass plant response rating: 3
Surinam grass; [4]
  B. signalgrass plant response rating: 6
Surinam grass; [5]
  B. signalgrass plant response rating: 0
Surinam grass; [10]
  B. signalgrass plant response rating: 0
Surinam grass; [11]
  Plant response rating, B. signalgrass: 0
Surinam grass; [12]
  B. signalgrass plant response rating: 0
bamyardgrass; [13]
  Barnyardgrass plant response rating: 0
bamyardgrass; [14]
  Barnyardgrass plant response rating: 0
bamyardgrass; [15]
  Barnyardgrass plant response rating: 0
bamyardgrass; [16]
  Plant response rating, Barnyardgrass: 0

## CCOC(Cn1c(=O)on(C(=O)N(c2ccc(Cl)cc2)C(C)C)c1=O)OCC [Compound 633]
bedstraw; [17]
  Plant response rating, Bedstraw: 0
bedstraw; [18]
  Plant response rating, Bedstraw: 0
bedstraw; [19]
  Bedstraw plant response rating: 0
blackgrass; [17]
  Plant response rating, Blackgrass: 0
blackgrass; [18]
  Plant response rating, Blackgrass: 0
blackgrass; [19]
  Blackgrass plant response rating: 4
blackgrass; [20]
  Plant response rating, Blackgrass: 8
blackgrass; [21]
  Blackgrass plant response rating: 0
blackgrass; [22]
  Blackgrass plant response rating: 3
blackgrass; [23]
  Plant response rating, Blackgrass: 5
blackgrass; [24]
  Plant response rating, Blackgrass: 7
Surinam grass; [17]
  Plant response rating, B. signalgrass: 0
Surinam grass; [18]
  Plant response rating, B. signalgrass: 0
Surinam grass; [19]
  B. signalgrass plant response rating: 0
Surinam grass; [20]
  Plant response rating, B. signalgrass: 5
Surinam grass; [21]
  B. signalgrass plant response rating: 0
Surinam grass; [22]
  B. signalgrass plant response rating: 3
Surinam grass; [23]
  Plant response rating, B. signalgrass: 6
Surinam grass; [24]
  Plant response rating, B. signalgrass: 6
bamyardgrass; Rate 62 g/ha, flood test species, Pre-emergence, visual evaluation after twelve to sixteen days
  Plant response rating, Barnyardgrass (0 to 10 scale, 0 is no effect, 10 is complete control): 0
bamyardgrass; Rate 125 g/ha, under heading Pre-emergence, flood test species, visual evaluation after twelve to sixteen days
  Barnyardgrass plant response rating (0 to 10 scale, 0 is no effect, 10 is complete control): 0
bamyardgrass; Rate 250 g/ha, Pre-emergence (flood test species), scale 0 to 10, 0 is no effect, 10 is complete control
  Barnyardgrass plant response rating: 0
bamyardgrass; Rate 500 g/ha, Pre-emergence section of Table B, 0 to 10 scale (0 no effect, 10 complete control)
  Barnyardgrass plant response rating: 0

## CC(C)N(C(=O)n1oc(=O)n(-c2ccc(Cl)cc2C(F)(F)F)c1=O)c1ccc(F)cc1 [Compound 20]
bedstraw; [17]
  Bedstraw plant response rating: 3
bedstraw; [25]
  Bedstraw plant response rating: 4
bedstraw; [26]
  Plant response rating, Bedstraw: 0
bedstraw; [27]
  Plant response rating, Bedstraw: 0
bedstraw; [28]
  Plant response rating, Bedstraw: 2
bedstraw; [29]
  Bedstraw plant response rating: 6
bedstraw; [30]
  Bedstraw plant response rating: 3
bedstraw; [31]
  Bedstraw plant response rating: 5
blackgrass; [17]
  Blackgrass plant response rating: 0
blackgrass; [25]
  Blackgrass plant response rating: 0
blackgrass; [26]
  Plant response rating, Blackgrass: 0
blackgrass; [27]
  Plant response rating, Blackgrass: 1
blackgrass; [28]
  Plant response rating, Blackgrass: 1
blackgrass; [29]
  Blackgrass plant response rating: 5
blackgrass; [30]
  Blackgrass plant response rating: 0
blackgrass; [31]
  Blackgrass plant response rating: 2
Surinam grass; [17]
  B. signalgrass plant response rating: 0
Surinam grass; [25]
  B. signalgrass plant response rating: 0
Surinam grass; [26]
  Plant response rating, B. signalgrass: 0
Surinam grass; [27]
  Plant response rating, B. signalgrass: 0
Surinam grass; [28]
  Plant response rating, B. signalgrass: 0
Surinam grass; [29]
  B. signalgrass plant response rating: 0
Surinam grass; [30]
  B. signalgrass plant response rating: 0
Surinam grass; [31]
  B. signalgrass plant response rating: 0
bamyardgrass; [17]
  Barnyardgrass plant response rating: 0
bamyardgrass; Rate 125 g/ha, Postemergence section (flood test species), scale 0 to 10, 0 no effect, 10 complete control
  Barnyardgrass plant response rating: 0
bamyardgrass; Rate 500 g/ha, Postemergence section of Table B, 0 to 10 scale (0 no effect, 10 complete control)
  Barnyardgrass plant response rating: 0
bamyardgrass; flood test, listed under Postemergence, Rate 250 g/ha, scale 0 to 10, 0 no effect, 10 complete control
  Barnyardgrass plant response rating: 0
